From US4333942A, “Anti-depressant and analgesic 4-phenoxypiperidines” (BYK Gulden Lomberg Chemische Fabrik GmbH, priority 1979, dated 1982) come the findings set out here.

The nature of series [1]: Determination of the lethal effect (acute toxicity). Details: species or system female albino mice NMRI. Conditions: mouse, in vivo; oral; mice; observation time 7 days. How it is done: (§1) All the experiments are carried out on female albino mice NMRI of 20 to 30 g body weight. 5 to 20 animals are employed per dose and the dose/response relationship are determined.
The mice were given food (Altromin®) and water ad libitum. The substances to be tested were administered orally as solutions of varying concentration in a volume of from 10 to 20 ml/kg using a stomach tube; 5 animals per dose were kept in Macrolon cages, type II. The observation time was 7 days. […] Literature: Litchfield and Wilkoxon ([…]) J. Pharm. Exp. Therap. 96/2, 99.

The next series deals with Reserpine ptosis. The series can be described thus: Antiptotic action (Reserpine antagonism). Conditions: Mus musculus. Format: in vivo, female albino mice NMRI. On the procedure:
as §1
Antiptotic action (Reserpine antagonism)
Subcutaneous administration of 2 mg/kg of reserpine to albino mice causes ptosis in the course of several hours [Reserpine Ptosis, Domenjoz and Theobald (1959), Arch, Int. Pharmacodyn. 120,450]. The test substances are administered to the animals orally in various doses 3 hours before the administration of reserpine. The intensity of ptosis is graded by a rating scale 3-2-1-0 (complete, moderate, slight, no ptosis) in the 2nd, 3rd and 4th hour after administration of the reserpine (that is 5, 6 and 7 hours after administration of the substance). The substances tested antagonize the ptosis according to the dose. The ED50 of the antagonistic action is evaluated in comparison to the daily reserpine control.

Another series relates to thermal pain. The series can be described thus: Tail flick test (analgesia). In kind it is in vivo, female albino mice NMRI. Conditions: Mus musculus; oral; dose which prolongs the reaction time by 50%; mice; read-out: Analgesic action, tail flick test ED50. On the procedure: as §1
(a) Tail flick test: Albino mice are exposed to thermal pain, from a focused heat ray, at the tail root, and the time which elapses before the tail is drawn away is recorded. This time is usually in the range of from 4 to 5 seconds. The substances tested cause a delayed reaction to the thermal pain, that is a reduced thermal pain reaction. The dose which prolongs the reaction time by 50% is determined. Literature: D'Amour, F. E., and Smith, D. L., (1941) J. Pharmacol. Exp. Ther. 72, 74.
A general note: Thermal pain tests record how soon the animal reacts.

A further series relates to acetic acid writhing. Nature of the series: Acetic acid writhing test (analgesia). Particulars: Mus musculus, read-out: Analgesic action, acetic acid writhing test ED50. In kind it is in vivo, female albino mice NMRI. How it is done:
as §1
(b) Writhing test (acetic acid writhing): intraperitoneal injection of 0.2 ml/20 g of body weight of mouse of a 0.75% strength acetic acid solution induces in albino mice a typical syndrome proceeding over the body with dorsal flection, called "writhing". These "writhes" (occurring in the course of the first half hour after administration) are counted over a period of 5 to 20 minutes after administration of acetic acid. The substances tested (administered 30 minutes before the acetic acid injection) cause a reduction in the number of writhing syndromes. The dose which reduces the number thereof by 50%, relative to the daily control, is determined. Literature: Koster, Anderson, de Beer (1959) Fed.Proc. 18, 412.

[2] abbreviates: po, 5 h, read-out: Antiptotic action, Reserpine antagonism ED50, 5 hours after administration.
[3] abbreviates: po, 6 h, read-out: Antiptotic action, Reserpine antagonism ED50, 6 hours after administration.
The mark [4] stands for this setting: po, 7 h, read-out: Antiptotic action, Reserpine antagonism ED50, 7 hours after administration.
Where [5] appears, read: read-out: Antiptotic action, Reserpine antagonism ED50, oral, 5 hours after administration, reserpine 2 mg/kg s.c., mice.
The mark [6] stands for this setting: oral, 6 hours after administration, reserpine 2 mg/kg s.c., mice, read-out: Antiptotic action, Reserpine antagonism ED50, 6 hours after administration.
The mark [7] stands for this setting: oral, 7 hours after administration, reserpine 2 mg/kg s.c., mice, read-out: Antiptotic action, Reserpine antagonism ED50, 7 hours after administration.
Setting [8] is: oral, 30 minutes before acetic acid, dose which reduces writhes by 50%, mice.

Where two headings read alike, the source gives them in different places.

In turn, `CN1CCC(Oc2ccc(N)cc2)(c2ccccc2)CC1` [compound 5] displayed an LD50 at 168 h in series [1] of 160 mg/kg. The ED50 turned out to be 0.7 mg/kg in the series on Reserpine ptosis (setting [2]); 3 mg/kg in the series on Reserpine ptosis (setting [3]); 10 mg/kg in the series with Reserpine ptosis (setting [4]); 12 mg/kg with thermal pain; 7 mg/kg with acetic acid writhing (po).

As for `CN1CCC(Oc2ccc([N+](=O)[O-])cc2)(c2ccccc2)CC1` [compound 3], in series [1], the LD50 at 168 h came to 140 mg/kg. For the same compound, the ED50 in the series on Reserpine ptosis (setting [2]) worked out at 0.7 mg/kg; with Reserpine ptosis (setting [3]), 2 mg/kg; with Reserpine ptosis (setting [4]), 5.8 mg/kg; with thermal pain it was 50 mg/kg.

For `CN(C)CCCN1c2ccccc2CCc2ccccc21` [Serial No. 1, Imipramine, reference compound], the ED50 is 18 mg/kg in the series on Reserpine ptosis (setting [5]); 50 mg/kg in the series on Reserpine ptosis (setting [6]); 100 mg/kg in the series with Reserpine ptosis (setting [7]); more than 50 mg/kg with thermal pain; more than 100 mg/kg in the series with acetic acid writhing (setting [8]).

Turning to `CN1CCC(Cc2ccccc2)(Oc2ccc([N+](=O)[O-])cc2)CC1` [compound 6], the median lethal dose (LD50) at 168 h in series [1] came out at 290 mg/kg. Moreover, the ED50 is more than 75 mg/kg with thermal pain and 35 mg/kg in the series with acetic acid writhing (setting [8]).

In series [1], `CN1CCC(Oc2ccccc2)(c2ccccc2)CC1` [compound 2] yielded an LD50 at 168 h of 220 mg/kg. The ED50 in the series on Reserpine ptosis (setting [2]) is 2.1 mg/kg; in the series with Reserpine ptosis (setting [3]), 2.7 mg/kg; in the series on Reserpine ptosis (setting [4]), 4 mg/kg; in the series on thermal pain, 35 mg/kg.

Consider `CC(=O)Nc1ccc(OC2(c3ccccc3)CCN(C)CC2)cc1` [compound 10], for which, in series [1], the LD50 at 168 h lay in the range of 100 to 200 mg/kg. For the same compound, the ED50 in the series with Reserpine ptosis (setting [2]) is less than 10 mg/kg; with Reserpine ptosis (setting [3]), less than 10 mg/kg; in the series on Reserpine ptosis (setting [4]) it was less than 10 mg/kg; in the series with thermal pain, 12.5 mg/kg; in the series with acetic acid writhing (po), 10 mg/kg.

With `CC(C)(C)N1CCC(Oc2ccc([N+](=O)[O-])cc2)(c2ccccc2)CC1` [Serial No. 9, 1-(tert.-Butyl)-4-(4-nitrophenoxy)-4-phenylpiperidine], the ED50 in the series with acetic acid writhing (po) was found to be 10 mg/kg.

On to `c1ccc(OC2(c3ccccc3)CCNCC2)cc1` [compound 8], for which, in series [1], the LD50 at 168 h is more than 200 mg/kg. In addition, the ED50 in the series with Reserpine ptosis (setting [5]) was approximately 25 mg/kg; with Reserpine ptosis (setting [6]), more than 50 mg/kg; in the series on Reserpine ptosis (setting [7]), more than 50 mg/kg; in the series on thermal pain, 25 mg/kg; with acetic acid writhing (setting [8]) it was 50 mg/kg.

For `CN1CCC(Cc2ccccc2)(Oc2ccc(N)cc2)CC1` [compound 4], the median lethal dose (LD50) at 168 h in series [1] turned out to be 180 mg/kg. Besides, the ED50 with Reserpine ptosis (setting [5]) was 9.5 mg/kg; with Reserpine ptosis (setting [6]), 24 mg/kg; in the series with Reserpine ptosis (setting [7]), 50 mg/kg; in the series on thermal pain it was 2 mg/kg; with acetic acid writhing (setting [8]), 27 mg/kg.

In the case of `CN1CCC(Cc2ccccc2)(Oc2ccccc2)CC1` [compound 7], in series [1], the median lethal dose (LD50) at 168 h turned out to be 300 mg/kg. In addition, the ED50 was 55 mg/kg with thermal pain and 27 mg/kg in the series with acetic acid writhing (setting [8]).

One may read the LD50 as the dose at which mortality reaches 50%. Read a high LD50 as a less toxic substance.
